Laboratory results: PubChem BioAssay AID1159605 (The Scripps Research Institute Molecular Screening Center, 2016)
Calls of active or inactive are those of the source.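 How the source made its calls: active means IC50 of 10 µM or lower; inactive means IC50 above 10 µM.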

Target: Mitogen-activated protein kinase kinase kinase 5 (Homo sapiens) (UniProt Q99683)
Assay: ASK1 kinase inhibitor potency, dose response, biochemical, AlphaScreen, MKK6 phosphorylation (AID 1159605);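 further: ASK1 phosphorylation of MKK6 substrate detected with anti-phospho-MKK6 antibody beads; inhibitors lower the luminescent signal by blocking MKK6 phosphorylation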
Conditions: AlphaScreen luminescence

Mitogen-activated protein kinase kinase kinase 5 (Homo sapiens), sequence (Q99683 whole entry, looked up): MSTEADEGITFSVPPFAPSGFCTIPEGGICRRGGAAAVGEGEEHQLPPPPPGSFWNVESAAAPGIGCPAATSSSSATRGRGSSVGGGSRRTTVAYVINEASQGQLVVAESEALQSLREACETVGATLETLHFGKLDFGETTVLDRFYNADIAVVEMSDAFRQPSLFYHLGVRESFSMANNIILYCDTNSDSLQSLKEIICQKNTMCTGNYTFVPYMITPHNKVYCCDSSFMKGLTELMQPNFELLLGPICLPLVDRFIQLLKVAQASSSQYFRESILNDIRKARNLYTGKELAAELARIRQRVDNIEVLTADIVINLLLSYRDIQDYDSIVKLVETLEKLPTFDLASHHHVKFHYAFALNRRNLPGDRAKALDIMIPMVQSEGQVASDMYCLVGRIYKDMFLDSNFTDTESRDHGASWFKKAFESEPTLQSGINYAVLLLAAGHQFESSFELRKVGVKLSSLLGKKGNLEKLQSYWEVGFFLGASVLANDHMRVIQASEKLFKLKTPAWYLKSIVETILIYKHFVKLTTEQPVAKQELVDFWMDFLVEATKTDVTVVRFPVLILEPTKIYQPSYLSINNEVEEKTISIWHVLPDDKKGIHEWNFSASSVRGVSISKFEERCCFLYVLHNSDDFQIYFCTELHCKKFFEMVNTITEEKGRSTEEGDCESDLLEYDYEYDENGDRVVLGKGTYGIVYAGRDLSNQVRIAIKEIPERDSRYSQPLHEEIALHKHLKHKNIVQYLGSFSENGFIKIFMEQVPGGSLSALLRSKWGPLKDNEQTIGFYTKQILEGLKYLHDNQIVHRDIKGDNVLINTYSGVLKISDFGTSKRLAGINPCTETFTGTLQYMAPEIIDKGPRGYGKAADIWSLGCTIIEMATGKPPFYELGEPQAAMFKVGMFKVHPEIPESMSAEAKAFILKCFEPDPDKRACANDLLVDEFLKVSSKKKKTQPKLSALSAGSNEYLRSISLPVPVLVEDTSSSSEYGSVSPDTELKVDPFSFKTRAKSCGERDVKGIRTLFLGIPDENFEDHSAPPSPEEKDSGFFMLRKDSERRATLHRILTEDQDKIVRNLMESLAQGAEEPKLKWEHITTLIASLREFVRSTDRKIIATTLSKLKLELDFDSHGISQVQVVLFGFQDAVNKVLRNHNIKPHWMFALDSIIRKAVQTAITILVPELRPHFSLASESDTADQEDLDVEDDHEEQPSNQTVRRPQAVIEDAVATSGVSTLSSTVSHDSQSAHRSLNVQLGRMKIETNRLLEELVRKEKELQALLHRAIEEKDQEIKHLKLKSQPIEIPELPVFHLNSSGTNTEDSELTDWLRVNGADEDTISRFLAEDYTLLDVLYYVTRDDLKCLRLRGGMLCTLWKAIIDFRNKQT

IC50 | Compound
inactive | c1ccc(OCCNc2nc(Nc3ccc(-n4ccnc4)cc3)nc3c2ncn3C2CCCCC2)cc1
6.57 µM | Cc1cc(NCc2cccc(C(F)(F)F)c2)nc(Nc2ccc(N3CCOCC3)cc2)n1
> 19 µM (inactive) | COc1cc2nc(Nc3cccc(N(C)C)c3)nc(Nc3cc(OC)c(OC)c(OC)c3)c2cc1OC
8.79 µM | CCN(CC)c1nc(Nc2ccc(N3CCOCC3)cc2)nc(Nc2ccc(-n3ccnc3)cc2)n1
> 23.1 µM (inactive) | Nc1nc(Nc2ccc(N3CCOCC3)cc2)cc(NC2CCN(Cc3ccccc3)CC2)n1
inactive | COc1ccc(CCNc2nc(NC3CCN(Cc4ccccc4)CC3)nc3c2ncn3C2CCCCC2)cc1
> 19.2 µM (inactive) | CN1CCN(c2ncn(-c3ccc(Nc4nccc(-c5cc(C#N)cc(N6CCC(O)CC6)c5)n4)cc3)n2)CC1
4.33 µM | COc1cc2nc(Nc3nc4ccccc4n3C)nc(Nc3ccc(NC(C)=O)cc3)c2cc1OC
> 20.1 µM (inactive) | COc1cc2nc(Nc3ccc(N4CCOCC4)cc3)nc(NCc3cccc(C(F)(F)F)c3)c2cc1OC
> 19.2 µM (inactive) | Cc1cccc(Nc2ccc3c(cnn3-c3cccc(C(=O)NCCN4CCN(CC5CC5)CC4)c3)c2)c1Cl
9.28 µM | COc1ccc(CCNc2nc(Nc3ccc(N4CCOCC4)cc3)nc3c2ncn3-c2ccccc2)cc1
> 19.2 µM (inactive) | NC(=O)c1cc2ccccc2cc1Nc1ccnc(Nc2ccc(N3CCOCC3)cc2)c1
> 19.2 µM (inactive) | O=C(Nc1ccccc1)c1ccccc1Nc1ccnc(Nc2ccc(N3CCOCC3)cc2)c1
> 21.6 µM (inactive) | O=C(Cc1cn(-c2ccc(Nc3nccc4ccccc34)nn2)c2ccccc12)Nc1ccc2c(c1)OCO2
inactive | Oc1ccc(CCNc2nc(N3CCN(Cc4ccc5c(c4)OCO5)CC3)nc3c2ncn3-c2ccsc2)cc1
inactive | Cc1cc(NCCc2ccc(O)cc2)nc(Nc2cccc(N(C)C)c2)n1
inactive | Oc1ccc(CCNc2nc(NC3CCN(Cc4ccccc4)CC3)nc3c2ncn3Cc2ccc(C(F)(F)F)cc2)cc1
> 18.8 µM (inactive) | CC(C)n1c(Nc2cccc(N(C)C)c2)nc2c(NC3CCN(Cc4ccccc4)CC3)ncnc21
inactive | Cc1cnc(-c2ccc(C(N)=O)cc2)nc1Nc1ccc(N2CCOCC2)cc1
> 19.2 µM (inactive) | Fc1cnc(Nc2ccc(N3CCNCC3)cc2)cc1-n1cnc(Nc2ccccc2)n1
> 20 µM (inactive) | CC(C)n1c(-c2ccc(C(N)=O)cc2)nc2c(Nc3ccc(Oc4ccccc4)cc3)ncnc21
8.17 µM | CCN(CC)c1nc(Nc2ccc(N3CCOCC3)cc2)nc(N2CCN(Cc3ccc4c(c3)OCO4)CC2)n1

IC50 | Compound
> 20.1 µM (inactive) | c1cc(Nc2ccc3c(c2)OCO3)nc(N2CCN(Cc3ccc4c(c3)OCO4)CC2)n1
inactive | COc1ccc(CCNc2nc(Nc3cccc(N(C)C)c3)nc3cc(OC)c(OC)cc23)cc1
inactive | CC(C)n1cnc2c(Nc3ccc(Oc4ccccc4)cc3)nc(N3CCOCC3)nc21
> 19.2 µM (inactive) | Cc1nc(C)n(-c2ccc(Nc3nccc(-c4cccc(-n5nccn5)c4)n3)cc2)n1
6.21 µM | COc1cc2nc(Nc3cccc(N(C)C)c3)nc(Nc3ccc4c(c3)OCO4)c2cc1OC
inactive | FC(F)(F)c1ccc(Cn2cnc3c(Nc4ccc(N5CCOCC5)cc4)nc(NC4CCN(Cc5ccccc5)CC4)nc32)cc1
> 20.1 µM (inactive) | c1cncc(CNc2nc(Nc3ccc(N4CCOCC4)cc3)nc3c2ncn3C2CCCCC2)c1
> 19.2 µM (inactive) | COc1ccc(-c2ncn(-c3ccc(Nc4nccc(-c5cc(C#N)cc(N6CCNCC6)c5)n4)cc3)n2)cn1
inactive | c1cnc2ccc(Nc3nc(Nc4ccc(N5CCOCC5)cc4)c4[nH]cnc4n3)cc2c1
inactive | Cc1cc(Nc2ccc3c(c2)OCO3)nc(N2CCN(Cc3ccc4c(c3)OCO4)CC2)n1
inactive | COc1cc2nc(Nc3nccc4ccccc34)nc(Nc3ccc(N4CCOCC4)cc3)c2cc1OC
inactive | COc1cc(Nc2nc(-c3ccc(C(N)=O)cc3)ncc2C)cc(OC)c1OC
> 20 µM (inactive) | FC(F)(F)c1ccc(Cn2cnc3c(Nc4ccc(N5CCOCC5)cc4)nc(N4CCN(c5ccccn5)CC4)nc32)cc1
9.41 µM | c1ccc(CN2CCC(Nc3nc(Nc4ccc(N5CCOCC5)cc4)nc4c3ncn4-c3ccsc3)CC2)cc1
9.06 µM | COc1ccc(-c2nc(C)cc(Nc3ccc(N4CCOCC4)cc3)n2)cc1
> 20 µM (inactive) | O=C(Cc1cn(-c2ccc(N3CCN(Cc4ccc5c(c4)OCO5)CC3)nn2)c2ccccc12)Nc1ccc(N2CCOCC2)cc1
> 19.9 µM (inactive) | O=C1CCCN1CCCNc1nc(Nc2ccc(-n3ccnc3)cc2)nc2c1ncn2-c1ccsc1
7.76 µM | COc1ccc(CCNc2ccnc(Nc3cccc(N(C)C)c3)n2)cc1
> 19.9 µM (inactive) | c1cc(-n2cnc3c(Nc4ccc5c(c4)OCO5)nc(N4CCN(Cc5ccc6c(c5)OCO6)CC4)nc32)cs1
> 18.9 µM (inactive) | COc1cc2nc(Nc3cccc(N(C)C)c3)nc(NCc3cccc(C(F)(F)F)c3)c2cc1OC
> 15.9 µM (inactive) | c1ccc(-n2cnc3c(Nc4ccc(N5CCOCC5)cc4)nc(Nc4cccnc4)nc32)cc1
inactive | c1ccc(N2CCN(c3nc(Nc4ccc(N5CCOCC5)cc4)c4ncn(-c5ccsc5)c4n3)CC2)nc1

IC50 | Compound
> 18.1 µM (inactive) | Cc1cc(NCCc2ccc(O)cc2)nc(N2CCN(Cc3ccc4c(c3)OCO4)CC2)n1
> 19.2 µM (inactive) | FC(F)(F)c1cc(-c2ccnc(Nc3ccc(N4CCOCC4)cc3)n2)cc(N2CCOCC2)c1
> 19.2 µM (inactive) | Cc1nc(C)n(-c2ccc(Nc3nccc(-c4cc(F)cc(-c5cn[nH]c5C)c4)n3)cc2)n1
> 20 µM (inactive) | COc1cc2nc(Nc3ccc(N4CCOCC4)cc3)nc(NCc3ccccc3)c2cc1OC
> 16.9 µM (inactive) | Oc1ccc(CCNc2ncnc3nc(N4CCN(Cc5ccc6c(c5)OCO6)CC4)[nH]c23)cc1
inactive | CCN(CC)c1nc(Nc2ccc3c(c2)OCO3)nc(N2CCC(N3CCOCC3)CC2)n1
6.84 µM | COc1cc(Nc2ccnc(Nc3cccc(N(C)C)c3)n2)cc(OC)c1OC
inactive | CN(C)c1cccc(Nc2nccc(NCCOc3ccccc3)n2)c1
7.74 µM | COc1cc2nc(Nc3cccc(N(C)C)c3)nc(Nc3ccc(NC(C)=O)cc3)c2cc1OC
> 19.9 µM (inactive) | O=C(NC1CC1)c1ccc(-c2nc(NCc3cccc(C(F)(F)F)c3)c3ncn(-c4ccccc4)c3n2)cc1
inactive | CN(C)c1cccc(Nc2nccc(Nc3ccc4c(c3)OCO4)n2)c1
> 18 µM (inactive) | NC(=O)c1ccc(-c2nc(NCc3cccc(C(F)(F)F)c3)c3ncn(-c4ccccc4)c3n2)cc1
8.86 µM | Cc1cnc(Nc2ccc(N3CCOCC3)cc2)nc1NCc1cccc(C(F)(F)F)c1
> 20 µM (inactive) | c1ccc(Oc2ccc(Nc3nc(N4CCc5ccccc5C4)nc4c3ncn4-c3ccccc3)cc2)cc1
inactive | Cc1cc(Nc2ccc(N3CCOCC3)cc2)nc(Nc2ccccc2)n1
inactive | c1cc(Nc2ccc3c(c2)OCO3)nc(Nc2ccc(N3CCOCC3)cc2)n1
inactive | FC(F)(F)c1cccc(CNc2nc(Nc3ccc(N4CCOCC4)cc3)nc3nc[nH]c23)c1
> 19.2 µM (inactive) | OC1CCN(c2ccc(Nc3nccc(-c4cc(F)cc(N5CCN(C6CC6)CC5)c4)n3)cc2)CC1
> 19.2 µM (inactive) | Cc1ccccc1-c1cscc1Nc1cnn(-c2cccc(C(=O)Nc3ccc(N4CCOCC4)cc3)c2)c1
> 19.2 µM (inactive) | COc1cc(NC(=O)c2cccc(-n3cc(NC(=O)Nc4c(C)cccc4Cl)cn3)c2)cc(OC)c1OC
> 20.1 µM (inactive) | Cc1cc(NCc2cccc(C(F)(F)F)c2)nc(Nc2cccc(N(C)C)c2)n1
5.32 µM | Cc1cc(Nc2ccc3c(c2)OCO3)nc(Nc2cccc(N(C)C)c2)n1

IC50 | Compound
> 13.8 µM (inactive) | c1nc(Nc2ccc(N3CCOCC3)cc2)c2[nH]c(N3CCN(Cc4ccc5c(c4)OCO5)CC3)nc2n1
inactive | CC(C)n1cnc2c(NC3CC3)nc(N3CCN(c4ccccn4)CC3)nc21
> 19.8 µM (inactive) | FC(F)(F)c1ccc(Cn2cnc3c(NCc4cccc(C(F)(F)F)c4)nc(Nc4ccc5ncccc5c4)nc32)cc1
> 19.2 µM (inactive) | c1ccc(-c2ncn[nH]2)c(Nc2ccnc(Nc3ccc(N4CCOCC4)cc3)c2)c1
> 19.2 µM (inactive) | c1ccc(Nc2cc(-c3ccnc(Nc4ccc(N5CCOCC5)cc4)c3)nn2-c2ccccc2)cc1
inactive | COc1cc2nc(Nc3ccc(N4CCOCC4)cc3)nc(Nc3cc(OC)c(OC)c(OC)c3)c2cc1OC
inactive | COc1cc2nc(NC3CCN(Cc4ccccc4)CC3)nc(Nc3ccc(N4CCOCC4)cc3)c2cc1OC
inactive | CN(C)c1cccc(Nc2nc(NCCc3ccc(O)cc3)c3ncn(Cc4ccc(C(F)(F)F)cc4)c3n2)c1
inactive | CN(C)c1cccc(Nc2nc(Nc3ccc4c(c3)OCO4)c3ncn(Cc4ccc(C(F)(F)F)cc4)c3n2)c1
inactive | CC(C)n1cnc2c(Nc3ccc(N4CCOCC4)cc3)nc(N3CCN(Cc4ccc5c(c4)OCO5)CC3)nc21
> 21.9 µM (inactive) | c1cn(-c2ccc(Nc3nc4ncnc(Nc5ccc6c(c5)OCO6)c4[nH]3)cc2)cn1
5.66 µM | c1ccc(OCCNc2nc(Nc3ccc(N4CCOCC4)cc3)nc3c2ncn3C2CCCCC2)cc1
inactive | CC(C)n1cnc2c(Nc3ccc(N4CCOCC4)cc3)nc(N3CCN(c4ccccn4)CC3)nc21
> 19.2 µM (inactive) | Cc1ccc(-c2ncn(-c3ccc(Nc4ncc(Cl)c(-c5ccnn5C)n4)cc3)n2)cn1
> 19.2 µM (inactive) | Cc1n[nH]c(C)c1-c1cc(F)cc(-c2ccnc(Nc3ccc(-n4cnc(N5CCOCC5)n4)cc3)n2)c1
> 19.2 µM (inactive) | Cc1[nH]ncc1-c1ccc2nc(NC(=O)C3COc4ccc(F)cc4C3)sc2c1 (stereo not given)
> 19.2 µM (inactive) | c1cc(-n2cnc(N3CCOCC3)n2)ccc1Nc1ncc2ccc(-c3cn[nH]n3)cc2n1
> 19.2 µM (inactive) | c1ccc2c(c1)OCC(c1nc(N3CCOCC3)c3cc(-c4cn[nH]c4)ccc3n1)O2 (stereo not given)
> 20.3 µM (inactive) | COc1cc2nc(Nc3cc(OC)c(OC)c(OC)c3)nc(Nc3ccc(N4CCOCC4)cc3)c2cc1OC
